Assay results: US9260439B2, “Dihydropyrrolopyrimidine derivatives” (PFIZER INC., priority 2014, dated 2016)

molecular target: truncated PI3Kα (p110α/iSH2 p85α) (Homo sapiens (Human), UniProt P42336); experiment: PI3KA_Act fluorescence polarization kinase assay (Ki); type: biochemical; settings: 1 mM ATP
Outline: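 Ki values result from fitting fluorescence polarization signals to the Morrison equation for tight-binding competitive inhibitors. The detector was GST-Grp1 PH domain with TAMRA-PIP3, read after a 30 min room-temperature reaction of 0.5 nM truncated PI3Kα and 30 μM PIP2 at pH 7.4 in HEPES/NaCl/MgCl2/DTT/CHAPS buffer. Compounds were tested as 12-point 3-fold dilutions from 3 μM.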

truncated PI3Kα (p110α/iSH2 p85α), sequence (P42336 whole entry, the tested form may be a part): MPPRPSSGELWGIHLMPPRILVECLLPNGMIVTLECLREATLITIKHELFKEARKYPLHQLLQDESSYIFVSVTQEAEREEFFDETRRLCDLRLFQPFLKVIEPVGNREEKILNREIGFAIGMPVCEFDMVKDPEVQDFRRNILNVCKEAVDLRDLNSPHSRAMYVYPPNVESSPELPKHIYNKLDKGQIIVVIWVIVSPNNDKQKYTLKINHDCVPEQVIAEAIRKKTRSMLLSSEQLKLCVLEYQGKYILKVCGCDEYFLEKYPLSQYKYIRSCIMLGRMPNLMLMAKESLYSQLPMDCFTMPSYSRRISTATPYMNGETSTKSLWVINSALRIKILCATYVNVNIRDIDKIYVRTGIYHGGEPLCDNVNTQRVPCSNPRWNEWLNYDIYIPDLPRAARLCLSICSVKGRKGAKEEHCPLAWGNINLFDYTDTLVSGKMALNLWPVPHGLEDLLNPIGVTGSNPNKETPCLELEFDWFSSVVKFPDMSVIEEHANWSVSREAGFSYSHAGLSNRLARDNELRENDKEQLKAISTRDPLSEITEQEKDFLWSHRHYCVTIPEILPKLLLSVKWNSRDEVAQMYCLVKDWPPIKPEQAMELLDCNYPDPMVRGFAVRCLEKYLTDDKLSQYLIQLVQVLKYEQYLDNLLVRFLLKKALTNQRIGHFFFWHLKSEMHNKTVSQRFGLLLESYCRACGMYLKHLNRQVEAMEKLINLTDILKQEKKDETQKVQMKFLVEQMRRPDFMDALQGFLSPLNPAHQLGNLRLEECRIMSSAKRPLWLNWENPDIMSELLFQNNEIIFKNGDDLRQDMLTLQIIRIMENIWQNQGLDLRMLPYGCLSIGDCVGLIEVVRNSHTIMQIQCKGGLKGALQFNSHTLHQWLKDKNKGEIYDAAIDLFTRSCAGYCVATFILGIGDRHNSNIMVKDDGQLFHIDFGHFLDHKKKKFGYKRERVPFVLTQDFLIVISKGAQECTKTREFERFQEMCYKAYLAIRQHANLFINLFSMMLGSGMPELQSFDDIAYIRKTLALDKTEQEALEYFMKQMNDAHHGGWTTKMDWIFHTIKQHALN

Point of comparison: `C[C@]1(N2CCc3c(-c4cnc(N)nc4)nc(N4CCOCC4)nc32)CCN(C(=O)C2(N)CCOC2)C1.Cl` (stereo partly drawn) [Example 380, {(3S)-3-[4-(2-aminopyrimidin-5-yl)-2-(morpholin-4-yl)-5,6-dihydro-7H-pyrrolo[2,3-d]pyrimidin-7-yl]-3-methylpyrrolidin-1-yl}(3-aminotetrahydrofuran-3-yl)methanone hydrochloride], “PI3KA_Act Ki” value 30 pM. Against it:
- CN1CCC1(C)C(=O)N1CC[C@](C)(N2CCc3c(-c4cnc(N)nc4)nc(N4CCOCC4)nc32)C1 (stereo partly drawn) [Example 355, {(3S)-3-[4-(2-aminopyrimidin-5-yl)-2-(morpholin-4-yl)-5,6-dihydro-7H-pyrrolo[2,3-d]pyrimidin-7-yl]-3-methylpyrrolidin-1-yl}(1,2-dimethylazetidin-2-yl)methanone] — 3.4-fold higher, 102 pM
- CN1CC(C(=O)N2CC[C@](C)(N3CCc4c(-c5cnc(N)nc5)nc(N5CCOCC5)nc43)C2)C1 [Example 356, {(3S)-3-[4-(2-aminopyrimidin-5-yl)-2-(morpholin-4-yl)-5,6-dihydro-7H-pyrrolo[2,3-d]pyrimidin-7-yl]-3-methylpyrrolidin-1-yl}(1-methylazetidin-3-yl)methanone] — within 1.5-fold, 37 pM
- CC(C)(C)OC(=O)N1CC[C@H]1C(=O)N1CC[C@@](C)(N2CCc3c(-c4cnc(N)nc4)nc(N4CCOCC4)nc32)C1 [Example 357, tert-butyl (2S)-2-({(3R)-3-[4-(2-aminopyrimidin-5-yl)-2-(morpholin-4-yl)-5,6-dihydro-7H-pyrrolo[2,3-d]pyrimidin-7-yl]-3-methylpyrrolidin-1-yl}carbonyl)azetidine-1-carboxylate] — 4.8-fold higher, 144 pM
- CC(C)(C)OC(=O)N1CCC1C(=O)N1CC[C@](C)(N2CCc3c(-c4cnc(N)nc4)nc(N4CCOCC4)nc32)C1 (stereo partly drawn) [Example 358, tert-butyl 2-({(3S)-3-[4-(2-aminopyrimidin-5-yl)-2-(morpholin-4-yl)-5,6-dihydro-7H-pyrrolo[2,3-d]pyrimidin-7-yl]-3-methylpyrrolidin-1-yl}carbonyl)azetidine-1-carboxylate] — 5.7-fold higher, 171 pM
- CC(C)(C)OC(=O)N1CC(F)(C(=O)N2CC[C@](C)(N3CCc4c(-c5cnc(N)nc5)nc(N5CCOCC5)nc43)C2)C1 [Example 359, tert-butyl 3-({(3S)-3-[4-(2-aminopyrimidin-5-yl)-2-(morpholin-4-yl)-5,6-dihydro-7H-pyrrolo[2,3-d]pyrimidin-7-yl]-3-methylpyrrolidin-1-yl}carbonyl)-3-fluoroazetidine-1-carboxylate] — 4.3-fold higher, 128 pM
- C[C@@]1(N2CCc3c(-c4cnc(N)nc4)nc(N4CCOCC4)nc32)CCN(C(=O)N2CCC2)C1 [Example 361, {(3R)-3-[4-(2-aminopyrimidin-5-yl)-2-(morpholin-4-yl)-5,6-dihydro-7H-pyrrolo[2,3-d]pyrimidin-7-yl]-3-methylpyrrolidin-1-yl}(azetidin-1-yl)methanone] — 2.6-fold higher, 78 pM
- CC1(C)CN[C@@H]1C(=O)N1CC[C@](C)(N2CCc3c(-c4cnc(N)nc4)nc(N4CCOCC4)nc32)C1.Cl [Example 362, {(3S)-3-[4-(2-aminopyrimidin-5-yl)-2-(morpholin-4-yl)-5,6-dihydro-7H-pyrrolo[2,3-d]pyrimidin-7-yl]-3-methylpyrrolidin-1-yl}[(2S)-3,3-dimethylazetidin-2-yl]methanone hydrochloride] — within 1.5-fold, 41 pM
- C[C@]1(N2CCc3c(-c4cnc(N)nc4)nc(N4CCOCC4)nc32)CCN(C(=O)N2CC(C#N)C2)C1 [Example 363, 1-({(3S)-3-[4-(2-aminopyrimidin-5-yl)-2-(morpholin-4-yl)-5,6-dihydro-7H-pyrrolo[2,3-d]pyrimidin-7-yl]-3-methylpyrrolidin-1-yl}carbonyl)azetidine-3-carbonitrile] — within 1.5-fold, 39 pM
- C[C@@]1(N2CCc3c(-c4cnc(N)nc4)nc(N4CCOCC4)nc32)CCN(C(=O)N2CC(C#N)C2)C1 [Example 364, 1-({(3R)-3-[4-(2-aminopyrimidin-5-yl)-2-(morpholin-4-yl)-5,6-dihydro-7H-pyrrolo[2,3-d]pyrimidin-7-yl]-3-methylpyrrolidin-1-yl}carbonyl)azetidine-3-carbonitrile] — 8.7-fold higher, 262 pM
- C[C@@]1(N2CCc3c(-c4cnc(N)nc4)nc(N4CCOCC4)nc32)CCN(C(=O)N2CC(O)C2)C1 [Example 365, {(3R)-3-[4-(2-aminopyrimidin-5-yl)-2-(morpholin-4-yl)-5,6-dihydro-7H-pyrrolo[2,3-d]pyrimidin-7-yl]-3-methylpyrrolidin-1-yl}(3-hydroxyazetidin-1-yl)methanone] — 2.1-fold higher, 63 pM
- C[C@]1(N2CCc3c(-c4cnc(N)nc4)nc(N4CCOCC4)nc32)CCN(C(=O)N2CC(O)C2)C1 [Example 366, {(3S)-3-[4-(2-aminopyrimidin-5-yl)-2-(morpholin-4-yl)-5,6-dihydro-7H-pyrrolo[2,3-d]pyrimidin-7-yl]-3-methylpyrrolidin-1-yl}(3-hydroxyazetidin-1-yl)methanone] — within 1.5-fold, 21 pM
- COC1CN(C(=O)N2CC[C@@](C)(N3CCc4c(-c5cnc(N)nc5)nc(N5CCOCC5)nc43)C2)C1 [Example 368, {(3R)-3-[4-(2-aminopyrimidin-5-yl)-2-(morpholin-4-yl)-5,6-dihydro-7H-pyrrolo[2,3-d]pyrimidin-7-yl]-3-methylpyrrolidin-1-yl}(3-methoxyazetidin-1-yl)methanone] — 4.2-fold higher, 127 pM
- CC(C)(C)OC(=O)N1CC[C@H]1C(=O)N1CC[C@](C)(N2CCc3c(-c4cnc(N)nc4)nc(N4CCOCC4)nc32)C1 [Example 370, tert-butyl (2S)-2-({(3S)-3-[4-(2-aminopyrimidin-5-yl)-2-(morpholin-4-yl)-5,6-dihydro-7H-pyrrolo[2,3-d]pyrimidin-7-yl]-3-methylpyrrolidin-1-yl}carbonyl)azetidine-1-carboxylate] — 6.1-fold higher, 184 pM
- C[C@]1(N2CCc3c(-c4cnc(N)nc4)nc(N4CCOCC4)nc32)CCN(C(=O)[C@@H]2CCCO2)C1 [Example 371, {(3S)-3-[4-(2-aminopyrimidin-5-yl)-2-(morpholin-4-yl)-5,6-dihydro-7H-pyrrolo[2,3-d]pyrimidin-7-yl]-3-methylpyrrolidin-1-yl}[(2S)-tetrahydrofuran-2-yl]methanone] — 3-fold higher, 91 pM
- C[C@]1(N2CCc3c(-c4cnc(N)nc4)nc(N4CCOCC4)nc32)CCN(C(=O)[C@H]2CCCO2)C1 [Example 372, {(3S)-3-[4-(2-aminopyrimidin-5-yl)-2-(morpholin-4-yl)-5,6-dihydro-7H-pyrrolo[2,3-d]pyrimidin-7-yl]-3-methylpyrrolidin-1-yl}[(2R)-tetrahydrofuran-2-yl]methanone] — within 1.5-fold, 40 pM
- C[C@]1(N2CCc3c(-c4cnc(N)nc4)nc(N4CCOCC4)nc32)CCN(C(=O)[C@H]2CCOC2)C1 [Example 373, {(3S)-3-[4-(2-aminopyrimidin-5-yl)-2-(morpholin-4-yl)-5,6-dihydro-7H-pyrrolo[2,3-d]pyrimidin-7-yl]-3-methylpyrrolidin-1-yl}[(3S)-tetrahydrofuran-3-yl]methanone] — within 1.5-fold, 28 pM
- C[C@]1(N2CCc3c(-c4cnc(N)nc4)nc(N4CCOCC4)nc32)CCN(C(=O)[C@@H]2CCOC2)C1 [Example 374, {(3S)-3-[4-(2-aminopyrimidin-5-yl)-2-(morpholin-4-yl)-5,6-dihydro-7H-pyrrolo[2,3-d]pyrimidin-7-yl]-3-methylpyrrolidin-1-yl}[(3R)-tetrahydrofuran-3-yl]methanone] — within 1.5-fold, 27 pM
- C[C@]1(N2CCc3c(-c4cnc(N)nc4)nc(N4CCOCC4)nc32)CCN(C(=O)[C@@H]2CCCN2)C1.Cl [Example 377, {(3S)-3-[4-(2-aminopyrimidin-5-yl)-2-(morpholin-4-yl)-5,6-dihydro-7H-pyrrolo[2,3-d]pyrimidin-7-yl]-3-methylpyrrolidin-1-yl}[(2S)-pyrrolidin-2-yl]methanone hydrochloride] — within 1.5-fold, 26 pM
- C[C@]1(N2CCc3c(-c4cnc(N)nc4)nc(N4CCOCC4)nc32)CCN(C(=O)[C@@H]2CCC(=O)N2)C1 [Example 378, (5S)-5-({(3S)-3-[4-(2-aminopyrimidin-5-yl)-2-(morpholin-4-yl)-5,6-dihydro-7H-pyrrolo[2,3-d]pyrimidin-7-yl]-3-methylpyrrolidin-1-yl}carbonyl)pyrrolidin-2-one] — 2.7-fold higher, 82 pM
- C[C@]1(N2CCc3c(-c4cnc(N)nc4)nc(N4CCOCC4)nc32)CCN(C(=O)[C@H]2CCC(=O)N2)C1 [Example 379, (5R)-5-({(3S)-3-[4-(2-aminopyrimidin-5-yl)-2-(morpholin-4-yl)-5,6-dihydro-7H-pyrrolo[2,3-d]pyrimidin-7-yl]-3-methylpyrrolidin-1-yl}carbonyl)pyrrolidin-2-one] — 2-fold higher, 61 pM

In the case of `C[C@]1(N2CCc3c(-c4cnc(N)nc4)nc(N4CCOCC4)nc32)CCN(C(=O)N2CCC2)C1` [Example 360, {(3S)-3-[4-(2-aminopyrimidin-5-yl)-2-(morpholin-4-yl)-5,6-dihydro-7H-pyrrolo[2,3-d]pyrimidin-7-yl]-3-methylpyrrolidin-1-yl}(azetidin-1-yl)methanone], the “PI3KA_Act Ki” value is reported as less than 18 pM.
For `COC1CN(C(=O)N2CC[C@](C)(N3CCc4c(-c5cnc(N)nc5)nc(N5CCOCC5)nc43)C2)C1` [Example 367, {(3S)-3-[4-(2-aminopyrimidin-5-yl)-2-(morpholin-4-yl)-5,6-dihydro-7H-pyrrolo[2,3-d]pyrimidin-7-yl]-3-methylpyrrolidin-1-yl}(3-methoxyazetidin-1-yl)methanone], the “PI3KA_Act Ki” value was less than 18 pM.
With `CC1(O)CN(C(=O)N2CC[C@](C)(N3CCc4c(-c5cnc(N)nc5)nc(N5CCOCC5)nc43)C2)C1` [Example 369, {(3S)-3-[4-(2-aminopyrimidin-5-yl)-2-(morpholin-4-yl)-5,6-dihydro-7H-pyrrolo[2,3-d]pyrimidin-7-yl]-3-methylpyrrolidin-1-yl}(3-hydroxy-3-methylazetidin-1-yl)methanone] the “PI3KA_Act Ki” value was less than 18 pM.
